Consider three compounds from patent US20060058322A1, “Method of wound healing using A2B adenosine receptor antagonists” (priority 2004, published 2006).

Marks after values point to notes of the source that are not given here.

Test [1] relates to Yorkshire pig. The test is described as follows: Wound healing in pig model (full thickness excisions, total granulation tissue). The test is classed as in vivo. As for the experimental part: Pig skin heals most like human skin and therefore testing on this animal provides an optimal paradigm to study cutaneous repair mechanisms. In this Example, the effect of an A2B antagonist on wound healing was tested in three pigs. PDGF (REGRANEX® (becaplermin) Gel 0.01%, Ortho-McNeil Pharmaceutical, Inc., Raritan, N.J.) was used as a positive control. The vehicle for drug delivery was 1.5% methylcellulose gel (KY gel). Control wounds received the vehicle alone. 3 different dosages of the A2B antagonist 3-ethyl-1-propyl-8-(1-{[3-(trifluoromethyl)phenyl]methyl}pyrazol-4-yl)-1,3,7-trihydropurine-2,6-dione, 1 μg/40 μl, 4 μg/40 μl, and 20 μg/40 μl were tested.
Method: Three Yorkshire pig ([…].) were used. On the day of surgery, a series of full thickness excisions were created alongside the paravertebral region on one side of the pig. Pigs were sacrificed at the end of 10 days and all wounds were removed for histological and immunohistochemical examinations.

Test [2] deals with ICR derived male mice. Description: Wound healing in mouse model (full-thickness punch wound, topical treatment). The class given is in vivo. As to conditions: mean, n=5; for CT50 (wound half-closure time): linear regression. The protocol:
Groups of ICR derived male mice (weighing 24±2 g) of 5 each were used. During testing period, the animals were single-housed in each cage. Under hexobarbital (90 mg/kg, IP) anesthesia, the shoulder and back region of each animal was shaved. A sharp punch (ID 12 mm) was applied to remove the skin including panniculus carnosus and adherent tissues. […] Test substances were administered topically immediately following wound injury once daily for a total of 10 consecutive days. The closure of the wound (%) and wound half-closure time (CT50) were determined by linear regression using Graph-Pad Prism™ (Graph Pad Software USA) and unpaired Student's t test was applied for comparison between treated and vehicle groups at each measurement time point on days 3, 5, 7, 9 and 11. Differences are considered of statistical significance at P<0.05 level.
Table 1 presents test data obtained for the compound 3-ethyl-1-propyl-8-(1-{[3-(trifluoromethyl)phenyl]methyl}pyrazol-4-yl)-1,3,7-trihydropurine-2,6-dione using the mouse model discussed above. Table 2 presents test date obtained using 1,3-dipropyl-8-(1-{[6-(trifluoromethyl)(3-pyridyl)]methyl}pyrazol-4-yl)- 1,3,7-trihydropurine-2,6-dione. In each case, the vehicle used for comparison was 1.5% carboxymethylcellulose in phosphate buffered saline at pH 7.4

In the case of `CCCn1c(=O)c2[nH]c(-c3cnn(Cc4cccc(C(F)(F)F)c4)c3)nc2n(CC)c1=O` [3-ethyl-1-propyl-8-(1-{[3-(trifluoromethyl)phenyl]methyl}pyrazol-4-yl)-1,3,7-trihydropurine-2,6-dione], the “Total granulation tissue, lowest dose versus highest dose” value in test [1] (1 μg/40 μl versus 20 μg/40 μl topical, p=0.047) is recorded as “statistical difference”. Moreover, in test [1] (20 μg/40 μl topical, p=0.035), the “Total granulation tissue, highest dose versus placebo formulation” value is listed as “statistical difference”. The “Effect on total granulation tissue” value in test [1] (topical 1, 4 and 20 μg/40 μl in 1.5% methylcellulose gel, 10 days, FIG. 1) is “stimulated the total granulation tissue in a dose-dependent fashion”. For the same compound, the Percent wound closure in test [2] (0.5 μg/mouse topical once daily, Day 1) was 0%; in test [2] (0.5 μg/mouse topical once daily, Day 2), 43.2* %; in test [2] (0.5 μg/mouse topical once daily, Day 3), 51.2* %; in test [2] (0.5 μg/mouse topical once daily, Day 4), 56.0* %; in test [2] (0.5 μg/mouse topical once daily, Day 5) it was 58.8* %; in test [2] (0.5 μg/mouse topical once daily, Day 6), 64.3* %. Further, the Percent wound closure is 72.5* % in test [2] (0.5 μg/mouse topical once daily, Day 7); 78.2* % in test [2] (0.5 μg/mouse topical once daily, Day 8); 82.5* % in test [2] (0.5 μg/mouse topical once daily, Day 9); 83.1* % in test [2] (0.5 μg/mouse topical once daily, Day 10); 87.1* % in test [2] (0.5 μg/mouse topical once daily, Day 11); 0% in test [2] (2 μg/mouse topical once daily, Day 1). Also, the Percent wound closure is listed as 35.6* % in test [2] (2 μg/mouse topical once daily, Day 2); 46.5* % in test [2] (2 μg/mouse topical once daily, Day 3); 57.4* % in test [2] (2 μg/mouse topical once daily, Day 4); 62.4% in test [2] (2 μg/mouse topical once daily, Day 5); 68.3* % in test [2] (2 μg/mouse topical once daily, Day 6); 73.3* % in test [2] (2 μg/mouse topical once daily, Day 7). Moreover, the Percent wound closure in test [2] (2 μg/mouse topical once daily, Day 8) is given as 78.8* %; in test [2] (2 μg/mouse topical once daily, Day 9), 82.2* %; in test [2] (2 μg/mouse topical once daily, Day 10) it was 89.2* %; in test [2] (2 μg/mouse topical once daily, Day 11), 91.6* %. For the same compound, the results for the “CT50 (wound half-closure time)” value in test [2] (0.5 μg/mouse topical once daily) and in test [2] (2 μg/mouse topical once daily) were 4.3* DAYS and 4.4* DAYS, respectively.
Regarding `CCCn1c(=O)c2[nH]c(-c3cnn(Cc4ccc(C(F)(F)F)nc4)c3)nc2n(CCC)c1=O` [1,3-dipropyl-8-(1-{[6-(trifluoromethyl)(3-pyridyl)]methyl}pyrazol-4-yl)-1,3,7-trihydropurine-2,6-dione], the Percent wound closure in test [2] (Table 2, 0.5 μg/mouse topical once daily, Day 3) is on record as 41.9* %; in test [2] (Table 2, 0.5 μg/mouse topical once daily, Day 5), 53.5* %; in test [2] (Table 2, 0.5 μg/mouse topical once daily, Day 7), 65.8* %; in test [2] (Table 2, 0.5 μg/mouse topical once daily, Day 9), 77.1* %; in test [2] (Table 2, 0.5 μg/mouse topical once daily, Day 11), 85.3* %. In addition, the “CT50 (wound half-closure time)” value in test [2] (Table 2, 0.5 μg/mouse topical once daily) is recorded as 5.5* DAYS.
For the compound PDGF, the “Total granulation tissue, positive control versus placebo formulation” value in test [1] (REGRANEX (becaplermin) Gel 0.01%, p=0.034) is listed as “statistical difference”.
